Assay results taken from patent US20200231614A1, “PSMA TARGETED RADIOHALOGENATED UREAS FOR CANCER RADIOTHERAPY” (THE JOHNS HOPKINS UNIVERSITY, priority 2015, published 2020).
Like-named read-outs stand apart in the source and are kept apart here.

Columns and labels:
PSMA = PSMA (Homo sapiens, UniProt Q04609); experiment: PSMA binding affinity (Ki); conditions: measured Ki, Table 11
From the text: Lysine glutamate ureas compounds for radiotherapy are disclosed in FIG. 2.

[1] = system: PSMA+(PIP) tumors and PSMA−(Flu) tumors; type: in vivo; conditions: 3 to 19 days after single-bolus injection (20 μCi), PSMA+(PIP) vs PSMA−(Flu) tumors
[2] = system: PSMA + PC-3 PiP and PSMA − PC-3 flu tumor xenografts; conditions: for Biodistribution: PC-3 PiP: PSMA+ tumor xenograft; for Biodistribution: PC-3 flu: PSMA− tumor xenograft
PSMA positive cells = experiment: In vitro radiotoxicity (cell kill); conditions: vs. free [^211At]astatide (FIG. 5B)
LNCaP cells = experiment: Uptake by LNCaP cells in presence and absence of PSMA inhibitor; conditions: 2 h and 4 h, presence and absence of PSMA inhibitor 2-PSMA (FIG. 5A)
[3] = 18 H post-injection, comparative Table 13

PSMA, sequence (Q04609 whole entry): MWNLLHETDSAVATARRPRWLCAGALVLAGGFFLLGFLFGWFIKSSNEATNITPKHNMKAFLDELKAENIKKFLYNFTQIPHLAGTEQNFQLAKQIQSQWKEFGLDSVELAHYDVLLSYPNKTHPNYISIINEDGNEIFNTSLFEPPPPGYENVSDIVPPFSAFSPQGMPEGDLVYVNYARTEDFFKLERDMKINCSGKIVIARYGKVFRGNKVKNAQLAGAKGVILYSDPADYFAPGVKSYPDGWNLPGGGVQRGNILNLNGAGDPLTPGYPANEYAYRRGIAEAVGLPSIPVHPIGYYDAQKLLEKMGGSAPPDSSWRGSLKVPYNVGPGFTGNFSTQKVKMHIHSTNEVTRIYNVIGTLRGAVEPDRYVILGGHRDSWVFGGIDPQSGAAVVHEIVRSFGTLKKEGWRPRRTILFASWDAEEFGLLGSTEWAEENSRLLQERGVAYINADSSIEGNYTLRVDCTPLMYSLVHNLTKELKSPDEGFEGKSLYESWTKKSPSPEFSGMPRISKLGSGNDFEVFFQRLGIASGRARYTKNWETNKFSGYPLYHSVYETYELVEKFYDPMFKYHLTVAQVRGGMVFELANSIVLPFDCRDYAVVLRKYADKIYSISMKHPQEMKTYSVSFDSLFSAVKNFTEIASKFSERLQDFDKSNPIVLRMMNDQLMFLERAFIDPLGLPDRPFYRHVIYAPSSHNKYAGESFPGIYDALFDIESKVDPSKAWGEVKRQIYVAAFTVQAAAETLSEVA

SMILES: O=C(O)CC[C@H](NC(=O)N[C@@H](CCC(=O)NCCc1ccc(I)cc1)C(=O)O)C(=O)O [HS-549, (((5)-1-Carboxy-4-((4-iodophenethyl)amino)-4-oxobutyl)carbamoyl)-L-glutamic Acid]
- Ki (PSMA): 0.01 nM

SMILES: O=C(O)CC[C@H](NC(=O)NC(CCCCNC(=O)c1ccc([211At])cc1)C(=O)O)C(=O)O (stereo partly drawn) [[^211At]YC-I-27, (2S)-2-(3-(1-Carboxy-5-(4-[^211At]asatatobenzamido)pentyl)ureido)pentanedioic Acid]
- Tumor growth inhibition [1]: PSMA Specific Tumor Growth Inhibition
- Biodistribution: Sm int. ([2]; 1 H post-injection): 3.67 ± 0.65 % ID/g
- Biodistribution: bladder ([2]; 1 H post-injection): 5.45 ± 2.57 % ID/g
- Biodistribution: blood ([2]; 1 H post-injection): 1.67 ± 0.32 % ID/g
- Biodistribution: heart ([2]; 1 H post-injection): 2.36 ± 0.48 % ID/g
- Biodistribution: kidney ([2]; 1 H post-injection): 71.5 ± 12.0 % ID/g
- Biodistribution: liver ([2]; 1 H post-injection): 2.11 ± 0.65 % ID/g
- Biodistribution: lung ([2]; 1 H post-injection): 5.82 ± 1.28 % ID/g
- Biodistribution: muscle ([2]; 1 H post-injection): 0.95 ± 0.15 % ID/g
- Biodistribution: spleen ([2]; 1 H post-injection): 29.2 ± 10.2 % ID/g
- Biodistribution: stomach ([2]; 1 H post-injection): 10.1 ± 1.66 % ID/g
- Biodistribution: thyroid ([2]; 1 H post-injection): 3.68 ± 1.10 % ID/g
- Biodistribution: Sm int. ([2]; 2 H post-injection): 2.08 ± 0.41 % ID/g
- Biodistribution: bladder ([2]; 2 H post-injection): 4.55 ± 0.86 % ID/g
- Biodistribution: blood ([2]; 2 H post-injection): 1.26 ± 0.15 % ID/g
- Biodistribution: heart ([2]; 2 H post-injection): 1.79 ± 0.31 % ID/g
- Biodistribution: kidney ([2]; 2 H post-injection): 60.2 ± 6.16 % ID/g
- Biodistribution: liver ([2]; 2 H post-injection): 1.58 ± 0.21 % ID/g
- Biodistribution: lung ([2]; 2 H post-injection): 6.30 ± 1.57 % ID/g
- Biodistribution: muscle ([2]; 2 H post-injection): 0.81 ± 0.12 % ID/g
- Biodistribution: spleen ([2]; 2 H post-injection): 20.3 ± 5.21 % ID/g
- Biodistribution: stomach ([2]; 2 H post-injection): 9.29 ± 2.86 % ID/g
- Biodistribution: thyroid ([2]; 2 H post-injection): 3.56 ± 0.95 % ID/g
- tumor/kidney ratio ([2]; 2 H post-injection): 0.3
- Biodistribution: Sm int. ([2]; 4 H post-injection): 1.85 ± 0.23 % ID/g
- Biodistribution: bladder ([2]; 4 H post-injection): 4.17 ± 0.74 % ID/g
- Biodistribution: blood ([2]; 4 H post-injection): 0.99 ± 0.12 % ID/g
- Biodistribution: heart ([2]; 4 H post-injection): 1.65 ± 0.39 % ID/g
- Biodistribution: kidney ([2]; 4 H post-injection): 60.2 ± 11.5 % ID/g
- Biodistribution: liver ([2]; 4 H post-injection): 1.63 ± 0.10 % ID/g
- Biodistribution: lung ([2]; 4 H post-injection): 5.54 ± 1.79 % ID/g
- Biodistribution: muscle ([2]; 4 H post-injection): 0.72 ± 0.14 % ID/g
- Biodistribution: spleen ([2]; 4 H post-injection): 20.3 ± 3.55 % ID/g
- Biodistribution: stomach ([2]; 4 H post-injection): 13.3 ± 3.12 % ID/g
- Biodistribution: thyroid ([2]; 4 H post-injection): 3.83 ± 1.18 % ID/g
- Biodistribution: Sm int. ([2]; 18 H post-injection): 1.08 ± 0.10 % ID/g
- Biodistribution: bladder ([2]; 18 H post-injection): 2.51 ± 0.39 % ID/g
- Biodistribution: blood ([2]; 18 H post-injection): 0.53 ± 0.05 % ID/g
- Biodistribution: heart ([2]; 18 H post-injection): 1.10 ± 0.16 % ID/g
- Biodistribution: kidney ([2]; 18 H post-injection): 57.4 ± 7.36 % ID/g
- Biodistribution: liver ([2]; 18 H post-injection): 0.82 ± 0.07 % ID/g
- Biodistribution: lung ([2]; 18 H post-injection): 3.61 ± 0.40 % ID/g
- Biodistribution: muscle ([2]; 18 H post-injection): 0.49 ± 0.27 % ID/g
- Biodistribution: spleen ([2]; 18 H post-injection): 8.01 ± 2.04 % ID/g
- Biodistribution: stomach ([2]; 18 H post-injection): 9.42 ± 3.04 % ID/g
- Biodistribution: thyroid ([2]; 18 H post-injection): 6.50 ± 1.97 % ID/g
- Non-target organ uptake: spleen [2, 3]: 8.0 % D/g
- Non-target organ uptake: stomach [2, 3]: 9.4 % D/g
- Non-target organ uptake: thyroid [2, 3]: 6.5 % D/g
- tumor/kidney ratio ([2]; 21 H post-injection): 0.5
- Biodistribution: PC-3 PiP ([2]; 1 H post-injection): 17.9 ± 2.98 % ID/g
- Biodistribution: PC-3 PiP ([2]; 2 H post-injection): 20.7 ± 3.42 % ID/g
- Biodistribution: PC-3 PiP ([2]; 4 H post-injection): 18.3 ± 2.90 % ID/g
- Biodistribution: PC-3 PiP ([2]; 18 H post-injection): 31.1 ± 9.78 % ID/g
- Biodistribution: PC-3 flu ([2]; 1 H post-injection): 2.18 ± 0.44 % ID/g
- Biodistribution: PC-3 flu ([2]; 2 H post-injection): 1.81 ± 0.27 % ID/g
- Biodistribution: PC-3 flu ([2]; 4 H post-injection): 1.53 ± 0.22 % ID/g
- Biodistribution: PC-3 flu ([2]; 18 H post-injection): 1.17 ± 0.20 % ID/g
- PSMA positive tumor uptake (in words) ([2]; biodistributions of Tables 2, 3, 9, 10): demonstrated PSMA positive tumor uptake
- Cell kill (PSMA positive cells): effectively kill cell relative to the untargeted alpha emitter
- Uptake by LNCaP cells (LNCaP cells): is blocked, indicating target (PSMA) specific binding
